Source: patent publication US20220062317A1, “NA+/K+ ATPASE INHIBITORS FOR USE IN THE PREVENTION OR TREATMENT OF METASTASIS” (UNIVERSITÄT BASEL, priority 2018, published 2022)
Entries after “also recorded” stand apart in the source; their conditions may differ. Structures can show the parent of a compound that is named as a salt.

Assays:
[1] = test system: BRx50 human CTC-derived cells; assay: FDA-approved compound screen for CTC cluster dissociation (high content imaging); format: cell-based; conditions: even at lowest concentration tested (0.1 μM)
[2] = test system: BR16 CTC-derived cells; assay: as above; format: cell-based, human; conditions: even at lowest concentration tested (0.1 μM), 2 days, hypoxia
Description: In order to identify actionable vulnerabilities of CTC clusters, and to test whether the epigenetic and transcriptional features of clustered CTCs are reversible upon cluster dissociation into single cells the following steps were undertaken. First, the expression of all known cell-cell junction (CCJ) components in patient samples obtained from normal breast (TGCA REF), breast cancer (TOGA REF), single CTCs and CTC clusters were assessed (Aceto et al. Cell 2014). While breast cancer cells tend to only partially reduce their CCJ repertoire compared to normal breast cells, CTCs express only a small fraction of CCJ components, likely as a consequence to their increased motility. Yet, CTC clusters retain a higher number of CCJs as compared to single CTCs. […] To this end, 2′486 FDA-approved compounds were evaluated for their ability to dissociate clusters of human breast CTC-derived cells. Cluster dissociation was assessed using a high content screening microscope and comparing cells treated with each individual compound to steady state clustered BR16 cells and 40 μm-filtered BR16 single cell suspension as negative and positive controls, respectively (FIG. 4a). […] For the majority of the 2′486 FDA-approved compounds, when using a 5 μM concentration for 2 days in hypoxic conditions, no detectable reduction in cell viability (>70% viability) nor mean cluster size (>450 μm2) in BR16 CTC-derived cells was observed. […] These compounds include inhibitors of Na^+/K^+ ATPases (n=6), HDACs (n=2), nucleotide biosynthesis (n=5), kinases (n=4), GPCRs (n=2), cholesterol biosynthesis (n=1), nuclear export (n=1), tubulin (n=9), as well as DNA binding compounds (n=8) and antibiotics (n=1).
A library containing 2,486 FDA-approved compounds was purchased from the Nexus Platform ETH Zurich. Each compound was resuspended using CTC medium at a 15 μM concentration and 20 μl were aliquoted in duplicate in a total of 64 Flat Bottom Clear Ultra Low attachment 96-well plates (Corning, Cat #3474).
To reduce cluster size in CTC derived cell lines, a 40 μm cell strainer was used (Corning, Cat #431750). […] Plates were incubated in hypoxia (5% oxygen) for 2 days and then 20 μl were transferred into a 96 well Black/clear Tissue culture treated plate (BD Falcon, Cat #353219) containing 40 μl of D-PBS (Invitrogen, Cat #14190169) and stained for 1 hr at 37° C. with a final concentration of 4 μM Hoechst 34580 (Invitrogen, Cat #H21486), 2 μM TMRM (Invitrogen, Cat #T668) and 4 μM TOTO-3 (Invitrogen, Cat #T3604). For each plate, two positive controls (non-treated cells) and two negative controls (non-treated and […] cells) were included. Z-factors were calculated per individual plate using the following formula: Z′=1−3(σs+σc)/|μs−μc|^3 (σ: standard deviation, μ: mean, s: positive control and c: negative control) (Martin et al., PLoS One 9, e88338, 2014) and ranged between 0.62-0.937. Plates were scanned using Operetta High Content Imaging System (Perkin Elmer) and cluster analysis was performed using Harmony High Content Imaging and Analysis Software (Perkin Elmer).

[3] = test system: LM2 xenografts; assay: LM2 xenograft, spontaneous CTC clusters and metastasis; format: in vivo, NSG mice; conditions: LM2 xenograft, digoxin 2 mg/kg vs vehicle
[4] = test system: BR16 xenografts; assay: BR16 xenograft (mammary fat pad), spontaneous CTC clusters and metastasis; format: in vivo, NSG mice; conditions: digoxin 2 mg/kg vs vehicle
Description: Blood specimens for CTC analysis were obtained from University Hospital Basel after informed patient consent according to protocol EKNZ BASEC 2016-00067 and EK 321/10, which received ethical approval from the Swiss authorities (EKNZ, Ethics Committee northwest/central Switzerland). An average of 7.5 ml of blood per patient was drawn in EDTA vacutainers. Within 1 hr from blood draw, the blood was processed through Parsortix GEN3D6.5 Cell Separation Cassette (Angle Europe). For mouse studies, blood was retrieved via cardiac puncture and 1 ml of blood was similarly processed through a Parsortix device. Captured CTCs were further stained on Parsortix cassette with EpCAM-AF488 conjugated (CellSignaling, Cat #CST5198), HER2-AF488 (#324410, BioLegend), EGFR-FITC conjugated (GeneTex, Cat #GTX11400) and CD45-BV605 conjugated (Biolegend, Cat #304042 (anti-human); Cat #103140 (anti-mouse)) antibodies. For all other models (xenografts), carrying cancer cells stably expressing a GFP-Luciferase reporter, only anti-CD45 staining was performed, while CTCs were identified based on GFP expression. The number of captured CTCs, including single CTCs, CTC clusters and CTC-WBC clusters, was determined while cells were still in the cassette. CTCs were then released from the cassette in DPBS (#14190169, Gibco) onto ultra-low attachment plates (#3471-COR, Corning). Representative pictures were taken at 40× magnification with Leica DM14000 fluorescent microscope using Leica LAS and analyzed with ImageJ.
For tail vein experiments, NOD SCID Gamma (NSG) mice (Jackson Labs) were injected with 1×10^6 BR16-mCherry cells resuspended in 100 μl D-PBS and monitored with IVIS Lumina II (Perkin Elmer). For CTC xenograft mouse model isolation, 1×10^6 LM2-GFP, 1×10^6 BRx50-GFP or 1×10^6 BR16-GFP cells were resuspended in 100 μl of 50% Cultrex PathClear Reduced Growth Factor Basement Membrane Extract (R&D Biosystems, Cat #3533-010-02) in D-PBS and injected orthotopically in NSG mice. Blood draw was performed 4-5 weeks after tumor onset for LM2 cells, 5-6 months after tumor onset for BR16 and 6-7 months after tumor onset for BRx50 cells.

Q: Which results are given for `CC[C@]1(O)C[C@H]2CN(CCc3c([nH]c4ccccc34)[C@@](C(=O)OC)(c3cc4c(cc3OC)N(C=O)[C@H]3[C@@](O)(C(=O)OC)[C@H](OC(C)=O)[C@]5(CC)C=CCN6CC[C@]43[C@@H]65)C2)C1` [vincristine sulfate]?
A: mean cluster size [1]: significant decrease in mean cluster size; mean cluster size [2]: significant decrease in mean cluster size

Q: For `COc1cc2c(c(OC)c1OC)-c1ccc(OC)c(=O)cc1[C@@H](NC(C)=O)CC2` [colchicine], which mean cluster size [1] is on record?
A: significant decrease in mean cluster size

Q: And the mean cluster size [2]?
A: significant decrease in mean cluster size

Q: Which results are given for `COc1cc([C@@H]2c3cc4c(cc3[C@H](O)[C@H]3COC(=O)[C@H]23)OCO4)cc(OC)c1OC` [podofilox]?
A: mean cluster size [1]: significant decrease in mean cluster size; mean cluster size [2]: significant decrease in mean cluster size

Q: Which results are given for `COc1cc(OC)c(/C=C/S(=O)(=O)Cc2ccc(OC)c(NCC(=O)O)c2)c(OC)c1` [rigosertib]?
A: mean cluster size [1]: significant decrease in mean cluster size; mean cluster size [2]: significant decrease in mean cluster size

Q: With `C[C@H]1O[C@@H](O[C@H]2[C@@H](O)C[C@H](O[C@H]3[C@@H](O)C[C@H](O[C@H]4CC[C@@]5(C)[C@H](CC[C@@H]6[C@@H]5C[C@@H](O)[C@]5(C)[C@@H](C7=CC(=O)OC7)CC[C@]65O)C4)O[C@@H]3C)O[C@@H]2C)C[C@H](O)[C@@H]1O` [digoxin, Digoxin] as the molecule, how does the “formation of CTC clusters (CTC fold change)” value [3] read?
A: reduced the formation

Q: And the “formation of CTC-neutrophil clusters (CTC fold change)” value [3]?
A: reduced the formation

Q: And the overall survival [3]?
A: prolonged overall survival

Q: What about the “tumor size / tumor growth rate over time” value [3] of the same molecule?
A: No significant differences are observed; also recorded: no significant difference

Q: And the overall survival ([3]; listed as Digoxin)?
A: prolongs overall survival

Q: What about the “metastasis (metastatic index)” value [4] of the same molecule?
A: suppresses metastasis

Q: And the “number of CTC clusters” value [4]?
A: clear decrease

Q: What about the “number of CTC-neutrophil clusters” value [4] of the same molecule?
A: clear decrease

Q: And the “tumor size / tumor growth rate over time” value [4]?
A: No significant differences are observed; also recorded: no significant difference
